Converted amounts (≈) assume the structure as drawn.
What was measured:
Assay in all cases: MIC (YAG medium)
Format in all cases: cell-based
Aspergillus flavus = settings: YAG medium, MIC banded into grades; for MIC: Aspergillus flavus, read-out: MIC A. flavus (grade)
Protocol: (§1) Between 1 and 5 mgs of compound were accurately weighed out into a sterile Eppendorf tube. The compound was dissolved in DMSO to give a solution containing 5 mg/mL. Tubes were stored at −20° C. until required.
(§2) On the day of testing thawed solutions were vortex mixed to ensure homogeneity. 30 μL of solution was removed and added to 570 μL of sterile water in a separate sterile Eppendorf The thoroughly mixed solution was used to prepare a series of doubling dilutions in water, in a deep well plate. […] replicate plates were prepared using a Minitrak by aspirating 20 μL from each well into eleven clear polystyrene 96 well plates.
(§3) Spores of Aspergillus spp. (Aspergillus fumigatus [two strains], Aspergillus terreus [two strains], Aspergillus niger and Aspergillus flavus) were harvested from cultures grown on Sabarauds agar for 5 days, and resuspended in PBS/Tween 80 to approx 1×10^7 cfu/mL. Other filamentous fungi (Absidia corymbifera, Fusarium solani, Rhizomucor, Scedosporium spp., Trichophyton spp.), were grown on Sabarauds agar for 2-10 days and spores/hyphae resuspended in PBS/Tween to give approx 1×10^7 cfu/mL. Candida species (Candida albicans, Candida glabrata, Candida krusei, Candida parapsilosis and Candida tropicalis) were grown on Sabarauds agar, cells were harvested from the agar using a sterile loop and resuspended in PBS/Tween 80 to approx 1×10^6 cfu/mL. Each organism suspension was diluted in RPMI medium, containing 2% glucose and 0.135 M MOPS buffer (pH 7.0) to 0.5−2×10^4 cfu/mL for Aspergillus spp. and other filamentous fungi and 0.5-2×10^3 cfu/mL for yeast. 80 μL of an organism suspension was added to each well of the plate containing drug dilutions.
(§4) This produced MIC plates with a drug range 50-0.05 mg/L and organism inocula of 1-2×10^4 cfu/mL for Aspergillus spp. and other filamentous fungi and 1-2×10^3 cfu/mL for yeasts. All plates were incubated for 24-48 hrs at 35° C. Growth was assessed by monitoring the optical density at 485 nm for each well. The MIC of a compound is the lowest drug concentration that inhibits growth of an organism by >80% compared with a drug free control. MICs are recorded as mg/L. Other growth media can be used for susceptibility testing, and the activity of the described compounds can also be assessed in a medium comprising 1% glucose, 1% ammonium chloride and 0.5% yeast extract (YAG medium). To perform MIC tests in this medium, dilutions of compounds are prepared in microtitre plates as described above. Fungal strains to be tested are grown and harvested in an identical manner to that described above, each organism suspension is then diluted in YAG medium to 0.5-2×10^4 cfu/mL for Aspergillus spp. and other filamentous fungi and 0.5-2×10^3 cfu/mL for yeast. 80 μL of an organism suspension was added to each well of the plate containing drug dilutions. This produced MIC plates with a drug range 50-0.05 mg/L and organism inocula of 1-2×10^4 cfu/mL for Aspergillus spp. and other filamentous fungi and 1-2×10^3 cfu/mL for yeasts. All plates were incubated for 24 hrs at 35° C. Growth was assessed by monitoring the optical density at 485 nm for each well. The MIC of a compound is the lowest drug concentration that inhibits growth of an organism by >70% compared with a drug free control. MICs are recorded as mg/L. In cases where the MIC of an organism is […] mg/L the MIC is repeated using a concentration range of 0.5-0.0005 mg/L. MIC tests in YAG medium have more clear-cut endpoints and have slightly lower MICs than those performed in RPMI medium.
(§5) The following organisms were tested: Absidia corymbifera, Aspergillus flavus, Aspergillus fumigatus AF293 and AF210, Aspergillus niger, Aspergillus terreus AT4 and AT49, Candida albicans, Candida glabrata, Candida krusei, Candida parapsilosis, Candida tropicalis, Fusarium solani, Rhizomucor sp., Scedosporium apiospermum, Scedosporium prolificans, Trichophyton mentagrophytes, and Trichophyton rubrum.

[1] = tested on: Aspergillus fumigatus AF210; settings: YAG medium, MIC banded into grades, AF210; for MIC: Aspergillus fumigatus, read-out: MIC A. fumigatus 210 (grade)
Protocol: as §1, §2, §3, §4, §5

[2] = tested on: Aspergillus fumigatus AF293; settings: YAG medium, MIC banded into grades, AF293; for MIC: Aspergillus fumigatus, read-out: MIC A. fumigatus (grade)
Protocol: as §1, §2, §3, §4, §5

Aspergillus niger = settings: YAG medium, MIC banded into grades; for MIC: Aspergillus niger, read-out: MIC A. niger (grade)
Protocol: as §1, §2, §3, §4, §5

Aspergillus terreus AT49 = settings: YAG medium, MIC banded into grades, AT49; for MIC: Aspergillus terreus, read-out: MIC A. terreus 49 (grade)
Protocol: as §1, §2, §3, §4, §5

Aspergillus terreus AT4 = settings: YAG medium, MIC banded into grades, AT4; for MIC: Aspergillus terreus, read-out: MIC A. terreus (grade)
Protocol: as §1, §2, §3, §4, §5

SMILES	MIC (Aspergillus flavus)	MIC [1]	MIC [2]	MIC (Aspergillus niger)	MIC (Aspergillus terreus AT49)	MIC (Aspergillus terreus AT4)	MIC A. flavus (grade) (Aspergillus flavus)	MIC A. fumigatus 210 (grade) [1]	MIC A. fumigatus (grade) [2]	MIC A. niger (grade) (Aspergillus niger)	MIC A. terreus 49 (grade) (Aspergillus terreus AT49)	MIC A. terreus (grade) (Aspergillus terreus AT4)
O=C(Nc1ccc(N2CCN(Cc3ccco3)CC2)cn1)C(=O)c1c(-c2ccccc2)cc2ccccn12 [Example 34, N-[5-(2-Furan-2-yl-methyl-piperazin-yl)-peridin-2-yl]-2-oxo-2-(2-phenylindolizin-3-yl)-acetamide]	–	–	–	–	–	–	3 (A grade of 3 represents an MIC of less than 1 mg/L)	3 (A grade of 3 represents an MIC of less than 1 mg/L)	3 (A grade of 3 represents an MIC of less than 1 mg/L)	3 (A grade of 3 represents an MIC of less than 1 mg/L)	3 (A grade of 3 represents an MIC of less than 1 mg/L)	3 (A grade of 3 represents an MIC of less than 1 mg/L)
Cc1ccccc1-c1cc2ccccn2c1C(=O)C(=O)Nc1ccc(N2CCN(Cc3ccco3)CC2)cn1 [Example 35, N-[5-(2-Furan-2-yl-methyl-piperazin-yl)-peridin-2-yl]-2-oxo-2-(2-o-tolyl-indolizin-3-yl)-acetamide]	–	–	–	–	–	–	3 (A grade of 3 represents an MIC of less than 1 mg/L)	3 (A grade of 3 represents an MIC of less than 1 mg/L)	3 (A grade of 3 represents an MIC of less than 1 mg/L)	3 (A grade of 3 represents an MIC of less than 1 mg/L)	3 (A grade of 3 represents an MIC of less than 1 mg/L)	3 (A grade of 3 represents an MIC of less than 1 mg/L)
O=C(Nc1cnccc1N1CCN(Cc2cccs2)CC1)C(=O)c1c(-c2ccccc2)cc2ccccn12 [Example 37, 2-Oxo-2-(2-phenyl-indolizin-3-yl)-N-[4-{4-thiophen-2-ylmethyl-piperazin-1-yl}-pyridine-3-yl]-acetamide]	< 1 µg/mL	< 1 µg/mL	< 1 µg/mL	< 1 µg/mL	< 1 µg/mL	< 1 µg/mL	–	–	–	–	–	–
O=C(Nc1cnccc1N1CCN(CCc2ccco2)CC1)C(=O)c1c(-c2ccccc2)cc2ccccn12 [Example 38, N-{4-[4-(2-Furan-2-yl-ethyl)-piperazin-1-yl]-pyridin-3-yl}-2-oxo-2-(2-phenyl-indolizin-3-yl)-acetamide]	< 1 µg/mL	< 1 µg/mL	< 1 µg/mL	< 1 µg/mL	< 1 µg/mL	< 1 µg/mL	–	–	–	–	–	–
O=C(Nc1ccc(N2CCN(c3ccccn3)CC2)cc1)C(=O)c1c(-c2ccccc2)cc2ccccn12 [Example 41, 2-Oxo-2-(2-phenyl-indolizin-3yl)-N-[4-(4-pyridin-2-yl-piperizin-1-yl)-phenyl]-acetamide]	–	–	–	–	–	–	3 (A grade of 3 represents an MIC of less than 1 mg/L)	3 (A grade of 3 represents an MIC of less than 1 mg/L)	3 (A grade of 3 represents an MIC of less than 1 mg/L)	3 (A grade of 3 represents an MIC of less than 1 mg/L)	3 (A grade of 3 represents an MIC of less than 1 mg/L)	3 (A grade of 3 represents an MIC of less than 1 mg/L)
O=C(Nc1ccc(N2CCN(c3ccccn3)CC2)cc1)C(=O)c1c(-c2ccccc2)cc2ccc(F)cn12 [Example 42, 2-(6-Fluoro-2-phenyl-indolizin-3-yl)-2-oxo-N-[4-(4-pyridin-2-yl-piperazin-1-yl)phenyl] acetamide]	–	–	–	–	–	–	3 (A grade of 3 represents an MIC of less than 1 mg/L)	3 (A grade of 3 represents an MIC of less than 1 mg/L)	3 (A grade of 3 represents an MIC of less than 1 mg/L)	3 (A grade of 3 represents an MIC of less than 1 mg/L)	3 (A grade of 3 represents an MIC of less than 1 mg/L)	3 (A grade of 3 represents an MIC of less than 1 mg/L)

Continued, in another order:

MIC (Aspergillus flavus)	MIC [1]	MIC [2]	MIC (Aspergillus niger)	MIC (Aspergillus terreus AT49)	MIC (Aspergillus terreus AT4)	SMILES	MIC A. flavus (grade) (Aspergillus flavus)	MIC A. fumigatus 210 (grade) [1]	MIC A. fumigatus (grade) [2]	MIC A. niger (grade) (Aspergillus niger)	MIC A. terreus 49 (grade) (Aspergillus terreus AT49)	MIC A. terreus (grade) (Aspergillus terreus AT4)
< 1 µg/mL	< 1 µg/mL	< 1 µg/mL	< 1 µg/mL	< 1 µg/mL	< 1 µg/mL	O=C(Nc1ccc(N2CCN(CCc3ccco3)CC2)cc1)C(=O)c1c(-c2ccccc2)cc2ccccn12 [Example 39, N-{4-[4-(2-Furan-2-yl-ethyl)-piperazin-1-yl]-phenyl}-2-oxo-2-(2-phenyl-indolizin-3-yl)-acetamide]	–	–	–	–	–	–
1 to 10 µg/mL (≈ 1.77 to 17.7 µM)	> 10 µg/mL	> 10 µg/mL	> 10 µg/mL	> 10 µg/mL	> 10 µg/mL	C=C(C)CN1CCN(c2ccc(NC(=O)C(=O)c3c(-c4ccc(N5CCOCC5)cc4)cc4ccccn34)cc2)CC1 [Example 40, N-{4-[4-(2-Methyl-allyl)-piperazin-1-yl]-phenyl}-2-[2-(4-morpholin-4-yl-phenyl)-indolizin-3-yl]-2-oxo-acetamide]	–	–	–	–	–	–
< 1 µg/mL	< 1 µg/mL	< 1 µg/mL	< 1 µg/mL	< 1 µg/mL	< 1 µg/mL	Cc1cccc(N2CCN(c3ccc(NC(=O)C(=O)c4c(-c5ccccc5)cc5ccccn45)cc3)CC2)n1 [Example 43, N-{4-[4-(6-Methyl-pyridin-2-yl)-piperazin-1-yl]-phenyl}-2-oxo-2-(2-phenyl-indolizin-3-yl)-acetamide]	–	–	–	–	–	–
< 1 µg/mL	< 1 µg/mL	< 1 µg/mL	< 1 µg/mL	< 1 µg/mL	< 1 µg/mL	Cc1cc(C)nc(N2CCN(c3ccc(NC(=O)C(=O)c4c(-c5ccccc5)cc5ccccn45)cc3)CC2)n1 [Example 44, N-{4-[4-(4,6-Dimethyl-pyrimidin-2-yl)-piperazin-1-yl]-phenyl}-2-oxo-2-(2-phenyl-indolizin-3-yl)-acetamide]	–	–	–	–	–	–
< 1 µg/mL	< 1 µg/mL	< 1 µg/mL	< 1 µg/mL	< 1 µg/mL	< 1 µg/mL	C=C1CCN(c2ccc(NC(=O)C(=O)c3c(-c4cccnc4C)cc4ccccn34)cc2)CC1 [Example 46, N-[4-(4-Methylene-piperidin-1-yl)-phenyl]-2-[2-(2-methyl-pyridin-3-yl)-indolizin-3-yl]-2-oxo-acetamide]	–	–	–	–	–	–
< 1 µg/mL	< 1 µg/mL	< 1 µg/mL	< 1 µg/mL	< 1 µg/mL	< 1 µg/mL	Cc1cc(C)nc(N2CCN(c3ccc(NC(=O)C(=O)c4c(C5CCCC5)cc5ccccn45)cc3)CC2)c1 [Example 47, 2-(2-Cyclopentyl-indolizin-3-yl)-N-{4-[4-(4,6-dimethyl-pyridin-2-yl)-piperazin-1-yl]-phenyl}-2-oxo-acetamide]	–	–	–	–	–	–
< 1 µg/mL	< 1 µg/mL	< 1 µg/mL	< 1 µg/mL	< 1 µg/mL	< 1 µg/mL	Cc1cc(C)nc(N2CCN(c3cccc(NC(=O)C(=O)c4c(-c5ccccc5)cc5ccccn45)c3)CC2)c1 [Example 48, N-{3-[4-(4,6-Dimethyl-pyridin-2-yl)-piperazin-1-yl]-phenyl}-2-oxo-2-(2-phenyl-indolizin-3-yl)-acetamide]	–	–	–	–	–	–

Source: patent US20110183969A1, “ANTIFUNGAL COMBINATION THERAPY” (priority 2008, published 2011)
